According to patent US12174190B2, “Combined markers for metastatic cancer and uses thereof” (Albert Einstein College of Medicine, priority 2017, dated 2024):

Experiments:
Type in all cases: in vivo, human
[1] = system: TMEM (Tumor Microenvironment of Metastasis); experiment: TMEM score in breast cancers before and after neoadjuvant chemotherapy (NAC); conditions: 20 breast cancer patients, before vs after NAC (weekly paclitaxel 80 mg/m^2 x 12 weeks followed by dose-dense AC); FIG. 5B-C
Experimental: (§1) FIG. 5A-5D. Neoadjuvant chemotherapy increases TMEM, MenaCalc and MenaINV scores in some breast cancer patients. Paclitaxel (and other cytotoxic chemotherapy) increases TMEM Score, MenaCalc and MenaINV expression in breast cancer patients treated with neoadjuvant chemotherapy (NAC). (A) Study design. (B) Individual TMEM scores of 20 patients before and after receiving NAC, which included weekly paclitaxel (80 mg/m^2×12 consecutive weeks) followed sequentially by dose-dense AC chemotherapy (doxorubicin 60 mg/m^2 and cyclophosphamide 600 mg/m^2 every 2 weeks×4 cycles, plus pegrastim 6 mg SC on day 2 of each cycle). Horizontal line; TMEM high-risk cutoff point. […] (D) MenaCalc expression in fine needle aspiration (FNA) biopsies, as assessed by real-time RT-PCR from 4 patients before and after 2 doses of neo-adjuvant chemotherapy with paclitaxel. (E) MenaINV gene expression in FNA biopsy samples, as assessed by real-time RT-PCR, taken from 5 breast cancer patients before and after 2-weeks of receiving NAC with paclitaxel. […]
Individual TMEM scores of 20 patients were determined before and after receiving NAC, which included weekly paclitaxel (80 mg/m^2×12 consecutive weeks) followed sequentially by dose-dense AC chemotherapy (doxorubicin 60 mg/m^2 and cyclophosphamide 600 mg/m^2 every 2 weeks×4 cycles, plus pegrastim 6 mg SC on day 2 of each cycle) (see FIG. 5B). […]

MenaCalc = MenaCalc expression in FNA biopsies by real-time RT-PCR before and after NAC with paclitaxel; conditions: FNA biopsies from 4 patients, before vs after 2 doses of neo-adjuvant paclitaxel; FIG. 5D
Experimental: as §1, with “point. For each pair of bars, Pre-NAC scores are shown in the first bar in the pair and Post-NAC scores are shown in the second bar.” for “point.”
(§2) MenaCalc expression was determined in fine needle aspiration (FNA) biopsies, as assessed by real-time RT-PCR from 4 patients before and after 2 doses of neo-adjuvant chemotherapy with paclitaxel (see FIG. 5D). […]

MenaINV = MenaINV gene expression in FNA biopsy samples by real-time RT-PCR before and after NAC with paclitaxel; conditions: FNA biopsies from 5 breast cancer patients, before vs after 2 weeks of NAC with paclitaxel; FIG. 5E
Experimental: as §1, with “point. For each pair of bars, Pre-NAC scores are shown in the first bar in the pair and Post-NAC scores are shown in the second bar.” for “point.”
as §2

CC(=O)O[C@H]1C(=O)[C@@]2(C)[C@H]([C@H](OC(=O)c3ccccc3)[C@]3(O)C[C@H](OC(=O)[C@H](O)[C@@H](NC(=O)c4ccccc4)c4ccccc4)C(C)=C1C3(C)C)[C@]1(OC(C)=O)CO[C@@H]1C[C@@H]2O [paclitaxel]
increases: TMEM Score [1] | MenaCalc expression (MenaCalc) | MenaINV expression (MenaINV)
